Test results published in patent US20240100062A1, “Methods of Treatment With an Iboga Alkaloid” (priority 2022, published 2024).

Columns and labels:
[1] = system: special operations veterans; assay: Hamilton Anxiety Rating Scale (HAM-A), Example 1 study; type: in vivo, human; conditions: for HAM-A score, mean: p(FDR) <0.001
Procedure: (§1) With subjects in the fasting state, an intravenous infusion of 1 gram of magnesium sulfate was administered 1-2 hours prior to treatment. […] Medical staff (MD, RN, or EMT) were onsite at a ratio of at least 1 staff per 2 patients throughout treatment for monitoring and management, but no specific coaching or psychological support was provided during treatment.
(§2) Post treatment, each subject was assessed four days after treatment, one month after treatment, and, if willing, one year after treatment. The post-treatment assessments conducted at four days and at one month after treatment included neuropsychological testing, measures of PTSD, depression, anxiety, mystical experiences, functional imaging and EEG. Post-treatment assessments conducted at one year after treatment included PTSD, depression, and anxiety measures.
(§3) Clinician administered scales included CAPS-5 (Clinician-administered PTSD Scale for DSM-5), which is a gold standard assessment of PTSD symptom severity; MADRS (Montgomery-Asberg Depression Rating Scale), a measure for depressive symptom severity; and Hamilton-Anxiety Rating Scale (HAM-A) (Shear, M. K. et al., Depress. Anxiety 13, 166-178 (2001)) a measure for anxiety symptom severity; SCID-5 (Structured Clinical Interview for DSM-5) Overview for a historical and environmental context of symptom presentation; MINI DSM-5 (Mini International Neuropsychiatric Interview from DSM-5) for a structured psychodiagnostics assessment; BAT-L (Boston Assessment of TBI—Lifetime) for a lifetime history of TBI and blast exposure; and Ohio State University TBI Identification Method (Short Form) for a lifetime history of TBI. MADRS testing provides an indication of depressive symptoms, CAPS-5 provides an indication of PTSD and SIGH-A provides an indication of anxiety. Collectively these overlap to provide indication of mood, concentration, sleep and tension.
To assess anxiety symptoms, the Hamilton Anxiety Rating Scale was used. This scale includes 14-items assessing both psychic and physical symptoms of anxiety. Items are rated on a scale from 0 (no symptoms) to 4 (severe symptoms). Total score ranges were: no or minimal anxiety (≤7), mild (8-14), moderate (15-23), and severe anxiety symptoms (≥24) (Matza et al., Int. J Methods Psychiatr. Res. 19, 223-232 (2010)).

[2] = system: special operations veterans; assay: Wechsler Adult Intelligence Scale (WAIS-IV) PSI and WMI, Example 1 study; type: in vivo, human
[3] = system: N-methyl-D-aspartate, kappa and mu opioid, sigma-1 and -2, nicotinic acetylcholine, serotonin transporter, and dopamine transporter; conditions: cited from earlier work
[4] = system: special operations veterans; assay: MADRS depression rating scale, Example 1 study; type: in vivo, human; conditions: for MADRS score, mean: p(FDR) <0.001
Procedure: as §1, §2, §3
The MADRS is a clinician—administered 10-item scale assessing the severity of depression symptoms. Items are rated on a scale of 0 (no abnormality) to 6 (severe) (Montgomery, S. A. et al., Br. J. Psychiatry J. Ment. Sci. 134, 382-389 (1979)). A total score of 0-6 indicates no depression, 7-19 mild depression, 20-34 moderate depression, 35-59 severe depression, […] (Miller, M. J., J. Affect. Disord. 77, 255-260 (2003)).

humans = conditions: in vivo; cited from earlier work
[5] = system: special operations veterans; assay: Structural T1w MRI, FreeSurfer regional volume and cortical thickness; type: in vivo, human
Procedure: Structural imaging of the brain was also conducted on some of the subjects of Example 1. Gray matter constitutes about 40% of the brain and white matter constitutes about 60% of the brain. Gray matter contains most of the brain's neuronal cell nodes, it is fully developed once a person reaches their 20's and interprets sensor information from various parts of the body. White matter is made up of bundles which connect various gray matter areas, it develops throughout the 20's and peaks in middle age, Typical metrics analyzed in anatomical (T1-weighted, “T1w”) imaging include volume and/or shape of nuclei (e.g. caudate), volume and/or shape of ventricles of the brain, and cortical thickness (mm). These metrics can be used to study normal and abnormal neuroanatomy and are primarily used to quantify gray matter. A tool called FreeSurfer was applied to images for a T1w structural analysis (volume, cortical thickness) to adjust for bias, remove non-brain matter, segments by tissue, parcels the brain into standardized regions, and provides measurements of those regions. FreeSurfer measurements of whole brain volume, volume by tissue (gray, white, CSF), estimated intracranial volume (ICV), subcortical gray matter volume, cortical volume by region were done. […] In particular, analysis was done to determine if there was any loss in gray matter volume or cortical thickness, whether there was a loss in white matter volume or an increase in presence of white matter hypotensities.
The fMRI images were also inspected to determine the difference in volume in regional areas of the brain from baseline to one month after treatment. FIG. 8A is a bar graph showing the effect size of a change in volume in 47 brain regions indicated along the x-axis. […] The fMRI images were also inspected for whole brain thickness at baseline and one month after treatment. […] FIG. 8B is a bar graph showing the effect size of a cortical thickness change for the brain regions indicated along the x-axis, from baseline to one month after treatment. […] The right and left parahippocampal gyrus are involved in visuospatial processing, including scene perception, navigation, and emotional contextualization. The left orbitofrontal gyrus is involved in impulse control and reward valuation. The left insular cortex is associated with both the affective-perceptual and cognitive-evaluative forms of empathy, as well as awareness of hunger, pain and fatigue. The left entorhinal cortex is a widespread network hub for memory, navigation, and perception of time.

With CCC1CC2CC3c4[nH]c5ccc(OC)cc5c4CCN(C2)C13 (stereo not shown) [ibogaine, Ibogaine] the “HAM-A score, mean” value ([1]; 1-mo. post, SD 4.6, baseline 20.7 ± 8.6, N 28, only participants with mild TBI) was 3.7, the “HAM-A score, mean” value ([1]; 1-mo. post, SD 6.3, baseline 23.8 ± 7.6, N 14, only participants meeting diagnostic criteria per MINI at baseline) was 5.1 and the “HAM-A % Reduction vs Baseline, mean” value ([1]; 1-mo. post, SD 21%, only participants with mild TBI) was 82% ±. The “HAM-A % Reduction vs Baseline, mean” value ([1]; 1-mo. post, SD 23%, only participants meeting diagnostic criteria per MINI) was 80% ±, the “HAM-A score, mean” value ([1]; 1-wk post, SD 3.4, baseline 23.8 ± 7.6, N 14, only participants meeting diagnostic criteria per MINI at baseline) was 4.2 and the “HAM-A score, mean” value ([1]; 1-wk. post, SD 3.3, baseline 20.7 ± 8.6, N 28, only participants with mild TBI) was 3.3. For the same molecule, the “HAM-A % Reduction vs Baseline, mean” value ([1]; 1-wk. post, SD 14%, only participants meeting diagnostic criteria per MINI) was 82% ±, the “HAM-A % Reduction vs Baseline, mean” value ([1]; 1-wk. post, SD 19%, only participants with mild TBI) was 82% ± and the “Working Memory (WMI, WAIS-IV), mean ± SD” value ([2]; 1-wk post, baseline 55.1 ± 8.3, p(FDR) 0.034) was 57.0 ± 9.5 T score. For the same molecule, the “Working Memory (WMI, WAIS-IV), D” value ([2]; baseline vs 1-month post) was 0.31, the “Processing Speed (PSI, WAIS-IV), D” value ([2]; baseline vs 1-wk post) was 0.97 and the “Working Memory (WMI, WAIS-IV), D” value ([2]; baseline vs 1-wk post) was 0.37. For the same molecule, the “Affinity for neurotransmitter receptors” value [3] was “moderate-to-weak affinity”, the “MADRS score, mean” value ([4]; 1-mo. post, SD 5.9, baseline 25.2 ± 8.7, N 28, only participants with mild TBI) was 3.6 and the “MADRS score, mean” value ([4]; 1-mo. post, SD 7.7, baseline 31.3 ± 6.5, N 15, only participants meeting diagnostic criteria per MINI at baseline) was 6.4. The “MADRS % Reduction vs Baseline, mean” value ([4]; 1-mo. post, SD 17%, only participants with mild TBI) was 87% ±, the “MADRS % Reduction vs Baseline, mean” value ([4]; 1-mo. post, SD 21%, only participants meeting diagnostic criteria per MINI) was 81% ± and the “MADRS score, mean” value ([4]; 1-wk post, SD 3.6, baseline 31.3 ± 6.5, N 15, only participants meeting diagnostic criteria per MINI at baseline) was 3.6. The “MADRS score, mean” value ([4]; 1-wk. post, SD 3.2, baseline 25.2 ± 8.7, N 28, only participants with mild TBI) was 2.7, the “MADRS % Reduction vs Baseline, mean” value ([4]; 1-wk. post, SD 11%, only participants meeting diagnostic criteria per MINI) was 89% ± and the “MADRS % Reduction vs Baseline, mean” value ([4]; 1-wk. post, SD 24%, only participants with mild TBI) was 87% ±. The “MADRS, D” value ([4]; Baseline vs 1-mo. post, only participants with mild TBI) was 2.70, the “Incidence of cardiac arrest in people treated” value (humans) was “Approximately 1 in 300 people” and the “Neurotoxicity reported in humans” value (humans) was “only transient ataxia has been reported in humans”. The QT interval prolongation (humans) was “instances of subsequent fatal arrhythmia”, the “White matter hypointensities (corrected for cerebral white matter), baseline vs. one month post treatment” value ([5]; 17 subjects, two-tailed p = 0.0789, left tailed p = 0.9606, right-tailed p = 0.0394) was “Two-tailed: no significant differences” and the “Subcortical Gray Matter volume, baseline vs. one month post treatment” value ([5]; 17 subjects, two-tailed p = 0.0949, left tailed p = 0.0475, alpha = 0.05) was “Two-tailed: no significant differences”. For the same molecule, the “Total Gray Matter volume, baseline vs. one month post treatment” value ([5]; 17 subjects, two-tailed p = 0.4755, alpha = 0.05) was “Two-tailed: no significant differences”, the “Cortical Gray Matter volume, baseline vs. one month post treatment” value ([5]; 17 subjects, two-tailed p = 0.4847, alpha = 0.05) was “Two-tailed: no significant differences” and the “Regional brain volume increases, baseline to one month after treatment” value ([5]; 47 brain regions (FIG. 8A)) was “Increases in volume were observed in the cerebral white mater (left) and the left ventral DC”. The “Regional cortical thickness change” value ([5]; baseline to one month after treatment (FIG. 8B)) was “Increases in cortical thickness one-month after treatment was observed in left entorhinal cortex, left-lateral-orbitofrontal pole, parahippocampal gyrus (bilaterally), left insular cortex, and right-pars triangularis (inferior frontal gyrus)”, the “Left hemisphere mean thickness” value ([5]; one month after treatment vs baseline, two-tailed p=0.7146, alpha=0.05) was “no significant difference from baseline” and the “Right hemisphere mean thickness” value ([5]; one month after treatment vs baseline, two-tailed, alpha=0.05) was “no significant difference from baseline”. The “Inspection of brain volume and thickness for damage” value ([5]; treated subjects, one month after treatment) was “no apparent damage to the brain”.
